Values after ≈ are worked out from the molar mass of the structure shown.
What was measured:
[1] = pH of excipient and felodipine suspensions before and after heat treatment (Example 11); assay type: physicochemical
Procedure: The heat treatment step involved heating the mixture at reflux for 15 minutes and allowing the mixture to stand over night.

[2] = Aqueous solubility of felodipine; assay type: physicochemical

Row | Structure (SMILES) | pH ([1]; Heat Treatment (reflux 15 minutes, stand over night)) | Δ pH ([1]; Heat Treatment versus Initial) | pH ([1]; Initial) | aqueous solubility ([2]; all pH levels) | solubility ([2]; aqueous media) [µg/mL]
1 | O=P([O-])([O-])O.[Ca+2] [Dibasic calcium phosphate (DCP), Dibasic calcium phosphate] | 4.07 | −3.32 | 7.39 | – | –
2 | CCOC(=O)C1=C(C)NC(C)=C(C(=O)OC)C1c1cccc(Cl)c1Cl (racemic) [felodipine] | – | – | – | about 0.0001% | 0.5 (≈ 1.3 µM)

From patent US20020086061A1 (priority 1999, published 2002)
